Experimental data published in ChEMBL document CHEMBL1770083, “2-(4-Carbonylphenyl)benzoxazole inhibitors of CETP: attenuation of hERG binding and improved HDLc-raising efficacy” (Bioorg Med Chem Lett, 2011).

Assays:
[1] = Lipophilicity, log D of the compound at pH 7.3 by HPLC; type: physicochemical; conditions: buffer
Mus musculus = assay: Increase of HDL cholesterol level in transgenic mouse model at 10 mg/kg; type: functional
[2] = target: T1, Cholesteryl ester transfer protein (Homo sapiens, UniProt P11597); assay: Inhibition of CETP
T1 sequence (P11597 whole entry): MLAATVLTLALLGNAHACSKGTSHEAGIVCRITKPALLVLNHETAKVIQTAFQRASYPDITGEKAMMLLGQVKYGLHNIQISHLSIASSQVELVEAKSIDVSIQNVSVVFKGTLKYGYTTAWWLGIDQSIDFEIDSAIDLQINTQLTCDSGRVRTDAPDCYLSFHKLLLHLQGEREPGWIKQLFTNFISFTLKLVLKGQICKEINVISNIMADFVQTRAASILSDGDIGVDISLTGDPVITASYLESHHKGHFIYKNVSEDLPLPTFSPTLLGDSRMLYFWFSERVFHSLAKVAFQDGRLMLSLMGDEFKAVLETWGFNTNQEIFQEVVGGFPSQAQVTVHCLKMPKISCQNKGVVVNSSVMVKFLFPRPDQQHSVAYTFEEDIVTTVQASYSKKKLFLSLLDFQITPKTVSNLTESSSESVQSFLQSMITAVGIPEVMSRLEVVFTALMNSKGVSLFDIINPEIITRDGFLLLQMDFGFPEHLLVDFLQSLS

[3] = target: Voltage-gated inwardly rectifying potassium channel KCNH2 (Homo sapiens, UniProt Q12809); assay: Displacement of [35S]MK499 from human ERG expressed in HEK cells; type: cell-based, HEK293
Chain of Voltage-gated inwardly rectifying potassium channel KCNH2 (Q12809 whole entry): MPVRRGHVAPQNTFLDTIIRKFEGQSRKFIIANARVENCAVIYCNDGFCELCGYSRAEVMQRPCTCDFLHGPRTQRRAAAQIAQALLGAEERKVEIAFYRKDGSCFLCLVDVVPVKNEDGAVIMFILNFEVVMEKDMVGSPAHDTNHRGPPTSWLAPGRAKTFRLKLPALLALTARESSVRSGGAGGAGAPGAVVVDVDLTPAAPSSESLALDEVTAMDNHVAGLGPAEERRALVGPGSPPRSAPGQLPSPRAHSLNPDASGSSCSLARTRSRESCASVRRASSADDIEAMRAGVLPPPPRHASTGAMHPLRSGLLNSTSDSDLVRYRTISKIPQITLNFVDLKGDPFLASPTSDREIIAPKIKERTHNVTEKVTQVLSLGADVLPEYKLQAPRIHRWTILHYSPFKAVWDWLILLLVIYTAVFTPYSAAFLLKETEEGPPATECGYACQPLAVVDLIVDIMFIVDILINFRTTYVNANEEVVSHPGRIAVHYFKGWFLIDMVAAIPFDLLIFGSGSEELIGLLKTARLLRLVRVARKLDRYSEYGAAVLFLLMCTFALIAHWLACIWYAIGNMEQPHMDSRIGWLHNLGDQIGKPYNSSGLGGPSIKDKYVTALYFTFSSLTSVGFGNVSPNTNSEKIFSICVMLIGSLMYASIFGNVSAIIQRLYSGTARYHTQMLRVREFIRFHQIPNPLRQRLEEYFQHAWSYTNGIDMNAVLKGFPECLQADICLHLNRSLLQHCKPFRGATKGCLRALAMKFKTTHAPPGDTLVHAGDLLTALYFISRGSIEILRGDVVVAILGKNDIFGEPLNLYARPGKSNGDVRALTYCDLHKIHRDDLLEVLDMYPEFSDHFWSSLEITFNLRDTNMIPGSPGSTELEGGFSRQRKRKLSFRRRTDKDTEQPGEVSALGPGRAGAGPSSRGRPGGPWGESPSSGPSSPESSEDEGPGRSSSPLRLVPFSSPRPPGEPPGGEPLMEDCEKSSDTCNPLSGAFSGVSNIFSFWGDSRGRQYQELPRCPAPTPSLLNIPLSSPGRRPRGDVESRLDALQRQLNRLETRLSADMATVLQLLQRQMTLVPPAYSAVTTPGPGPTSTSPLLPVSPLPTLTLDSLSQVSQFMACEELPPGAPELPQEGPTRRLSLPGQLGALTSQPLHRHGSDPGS

Row | SMILES | logD [1] | Activity (Mus musculus) | IC50 [2] | IC50 [3]
1 | CC(C)Oc1ccc(F)cc1-c1ccc(N2CCC(CNC(=O)c3ccc(-c4nc5cc(C#N)cc(C(C)C)c5o4)cc3)CC2)nc1 | 7.2 | 24 mg/dL |  | 
2 | CC(C)c1cc(C#N)cc2nc(-c3ccc(C(=O)NC[C@H]4CC[C@@H](c5ccc(C(C)(C)C)cc5)CC4)cc3)oc12 |  | 17 mg/dL | 37 nM | > 30000 nM
3 | CC(C)c1cc(C#N)cc2nc(-c3ccc(C(=O)NC[C@H]4CC[C@H](c5ccc(C(C)(C)C)cc5)CC4)cc3)oc12 |  | 18 mg/dL | 38 nM | > 30000 nM
4 | CC(C)c1cc(C#N)cc2nc(-c3ccc(C(=O)NC[C@H]4CC[C@@H](c5ccc(C(F)(F)F)cc5)CC4)cc3)oc12 |  |  | 134 nM | > 30000 nM
5 | CC(C)c1cc(C#N)cc2nc(-c3ccc(C(=O)NC[C@H]4CC[C@H](c5ccc(C(F)(F)F)cc5)CC4)cc3)oc12 |  |  | 40 nM | > 30000 nM
6 | CC(C)c1cc(C#N)cc2nc(-c3ccc(C(=O)NC[C@H]4CC[C@@H](c5cccc(C(F)(F)F)c5)CC4)cc3)oc12 |  |  | 78 nM | 
7 | CC(C)c1cc(C#N)cc2nc(-c3ccc(C(=O)NC[C@H]4CC[C@H](c5cccc(C(F)(F)F)c5)CC4)cc3)oc12 |  |  | 100 nM | 
8 | Cc1cccc([C@H]2CC[C@@H](CNC(=O)c3ccc(-c4nc5cc(C#N)cc(C(C)C)c5o4)cc3)CC2)c1 |  |  | 145 nM | 
9 | Cc1cccc([C@H]2CC[C@H](CNC(=O)c3ccc(-c4nc5cc(C#N)cc(C(C)C)c5o4)cc3)CC2)c1 |  |  | 133 nM | 
10 | CC(C)c1cc(C#N)cc2nc(-c3ccc(C(=O)NC[C@H]4CC[C@@H](c5cc(C(F)(F)F)cc(C(F)(F)F)c5)CC4)cc3)oc12 |  |  | 1040 nM | > 30000 nM
11 | CC(C)c1cc(C#N)cc2nc(-c3ccc(C(=O)NC[C@H]4CC[C@H](c5cc(C(F)(F)F)cc(C(F)(F)F)c5)CC4)cc3)oc12 |  |  | 84 nM | > 30000 nM
12 | CC(C)c1cc(C#N)cc2nc(-c3ccc(C(=O)NC[C@H]4CC[C@H](c5ccc(Cl)cc5)CC4)cc3)oc12 |  |  | 77 nM | > 30000 nM
13 | CC(C)Oc1ccc(F)cc1-c1ccc(N2C[C@@H](CNC(=O)c3ccc(-c4nc5cc(C#N)cc(C(C)C)c5o4)cc3)OC2=O)nc1 |  | 24 mg/dL | 66 nM | > 30000 nM
14 | CC(C)Oc1ccc(F)cc1-c1ccc(N2C[C@H](CNC(=O)c3ccc(-c4nc5cc(C#N)cc(C(C)C)c5o4)cc3)OC2=O)nc1 |  |  | 154 nM | > 30000 nM
15 | CC(C)c1cc(C#N)cc2nc(-c3ccc(C(=O)NC[C@@H]4CN(c5ccc(-c6ccccc6OC(F)(F)F)cn5)C(=O)O4)cc3)oc12 |  | 19 mg/dL | 46 nM | > 30000 nM
16 | CC(C)c1cc(C#N)cc2nc(-c3ccc(C(=O)NC[C@H]4CN(c5ccc(-c6ccccc6OC(F)(F)F)cn5)C(=O)O4)cc3)oc12 |  |  | 140 nM | 3580 nM
17 | CC(C)c1cc(C#N)cc2nc(-c3ccc(C(=O)NC[C@]4(C)CN(c5ccc(-c6ccccc6OC(F)(F)F)cn5)C(=O)O4)cc3)oc12 |  | 33 mg/dL | 22 nM | > 30000 nM
18 | CC(C)c1cc(C#N)cc2nc(-c3ccc(C(=O)NC[C@@]4(C)CN(c5ccc(-c6ccccc6OC(F)(F)F)cn5)C(=O)O4)cc3)oc12 |  | 27 mg/dL | 18 nM | > 30000 nM
19 | CC(C)c1cc(C#N)cc2nc(-c3ccc(C(=O)NCC4CN(c5ccc(Cl)cn5)C(=O)O4)cc3)oc12 (racemic) | 5.8 |  | 19200 nM | 
20 | C=C(C)c1ccc(N2CC(CNC(=O)c3ccc(-c4nc5cc(C#N)cc(C(C)C)c5o4)cc3)OC2=O)nc1 (racemic) | 5.4 |  | 2340 nM | > 30000 nM
21 | CC(C)c1cc(C#N)cc2nc(-c3ccc(C(=O)NCC4CN(c5ccc(-c6ccccc6C#N)cn5)C(=O)O4)cc3)oc12 (racemic) | 5.1 |  | 829 nM | 1190 nM
22 | CC(C)c1cc(C#N)cc2nc(-c3ccc(C(=O)NCC4CN(c5ccc(-c6ccccc6C(N)=O)cn5)C(=O)O4)cc3)oc12 (racemic) | 4.8 |  |  | > 30000 nM
23 | Cc1ccc(-c2ccc(N3CC(CNC(=O)c4ccc(-c5nc6cc(C#N)cc(C(C)C)c6o5)cc4)OC3=O)nc2)s1 (racemic) | 6.2 |  | 955 nM | 12700 nM
24 | Cc1ccc(OC(C)C)c(-c2ccc(N3CC(CNC(=O)c4ccc(-c5nc6cc(C#N)cc(C(C)C)c6o5)cc4)OC3=O)nc2)c1 (racemic) | 6.9 |  | 171 nM | 
25 | CC(C)Oc1ccc(F)cc1-c1ccc(N2CC(CNC(=O)c3ccc(-c4nc5cc(C#N)cc(C(C)C)c5o4)cc3)OC2=O)nc1 (racemic) | 6.6 |  | 124 nM | > 30000 nM
26 | CC(C)c1cc(C#N)cc2nc(-c3ccc(C(=O)NCC4CN(c5ccc(-c6ccccc6OC(F)(F)F)cn5)C(=O)O4)cc3)oc12 (racemic) | 6.4 |  | 67 nM | > 30000 nM
